Laboratory results reported in patent publication US20100173983A1, “METHOD FOR INDUCING AUTOPHAGY” (priority 2007, published 2010).

Legend:
[1] = tested on: endonuclease G; assay: Western blot of R-182 nuclear preparations, endonuclease G; type: cell-based, Human; conditions: R-182 cells, 5 μg/ml over 24 hr
From the text: (§1) FIG. 8. Molecular evidence of autophagic cell death in R-182 ovarian cancer cells induced by Cpd 1. […] B, Beclin 1 binds to Bcl-2. Immunoprecipitation study using mitochondrial preparations of cells pre-treated with Cpd 1 as stated in A, and subjected to beclin 1 immunoprecitation. Immunoprecipitated fractions were washed in PBS, subjected to SDS-PAGE, blotted and then probed with a mouse anti-Bcl-2 antibody. Actin and Topo-1 were used as loading control. C, Depolarized cells resulting from over-expression of Bax and Beclin 1 following administration of Cpd 1. Cells were treated with Cpd 1 as described in A, pelleted and washed in HBSS and the cell pellet resuspended in the reaction buffer for JC-1 (Biovision, Inc. MitoCapture™ K250-100). HBSS-washed cells were analysed by flow cytometry (λexcit=488 nm and (λemit=530 nm for green fluorescence (depolarized) or 590 nm for red fluorescence (polarized). 10,000 gated events were measured with a BD FACScalibur. Results were expressed as mean±standard deviation (n=3).
After treatment with Cpd 1, protein was extracted from cells and measured as previously described (Kamsteeg et al., 2003). For separation of the cytoplasmic and mitochondrial fractions, cell pellets were processed using the ApoAlert Cell Fractionation kit (Promega) according to the manufacturer's instructions. […]

[2] = tested on: chemoresistant epithelial ovarian cancer (EOC) xenografts; assay: EOC xenograft in SCID mice, tumour growth; type: in vivo; conditions: increasing doses, intraperitoneal injection; data not shown
Method: In vivo studies using tumour-bearing mice were conducted to further confirm that Cpd 1 induces programmed cell death via an autophagic process. SCID mice bearing chemoresistant epithelial ovarian cancer (EOC) xenografts derived from a primary cell culture of a patient's ascites were administered with increasing doses of Cpd 1 by intraperotineal injection resulting in reductions in both tumor volume and tumor weight (data not shown). Representative tumours excised from these mice and tumour-bearing mice administered vehicle control were then fixed, sectioned and subjected to immunohistopathology analysis using an α-enodonuclease G directed monoclonal antibody. Tumor samples were blocked with either 10% horse or goat serum in PBS for 1 hour at room temperature. Following three washes with PBS, samples were incubated overnight at 4° C. with either the anti-EndoG (LifeSpan Bioscience) antibody or mouse IgG1 isotype as negative controls. After three washes with PBS, specific staining was detected by incubating with a peroxidase-conjugated horse anti-mouse antibody (1:1000 dilution) for 1 hour followed by a five-minute incubation with DAB substrate (Vector Laboratories). Tissue sections were then counterstained with haematoxylin (Sigma Chemical Co.) before dehydration with ethanol and Histosolve (Shandon Inc., Pittsburgh, Pa.). […]

[3] = tested on: R-182 cells; assay: Mitochondrial membrane depolarization, JC-1 flow cytometry; type: cell-based, Human; conditions: cells treated 5 μg/ml
From the text: as §1
To measure membrane depolarization cells were treated with Cpd 1 as described above, pelleted and washed in HBSS and the cell pellet resuspended in the reaction buffer for JC-1 (Biovision, Inc. MitoCapture™ K250-100). HBSS-washed cell pellets were resuspended in 1 mL aliquots of the Mitocapture reagent buffer with 1 μL of JC-1 solution in DMSO (Biovision).

[4] = tested on: Akt; assay: Western blot of R-182 lysates, Akt; type: cell-based, Human; conditions: R-182 cells, 5 μg/ml
From the text: FIG. 10. The expression of upstream regulators of autophagy are also modulated in response to Cpd 1. […] B-actin was included as a loading control. B, Proposed mechanism of Cpd 1 induced autophagic cell death.
After treatment with Cpd 1, protein was extracted from cells and measured as previously described (Kamsteeg et al., 2003). For separation of the cytoplasmic and mitochondrial fractions, cell pellets were processed using the ApoAlert Cell Fractionation kit (Promega) according to the manufacturer's instructions. 20 μg protein was denatured in sample buffer (2.5% sodium dodecyl sulfate [SDS], 10% glycerol, 5% β-mercapto-ethanol, 0.15 M Tris, pH 6.8, and 0.01% bromophenol blue) and subjected to 12% SDS polyacrylamide gel electrophoresis (SDS-PAGE) as previously described (Kamsteeg et al., 2003). The following antibodies and concentrations were used: mouse anti-Bax (BD Biosciences, 1:500), rabbit anti-actin (Sigma, 1:10,000), rabbit anti-cytochrome c (BD Biosciences, 1:1,000), mouse anti-Cox-4 (BD Biosciences, 1:500), rabbit anti-beclin 1 (Santa Cruz Biotechnology, 1:600), mouse anti LC3 (Nanotools, 1:500). […] Proteins were observed using enhanced chemiluminescence (Pierce, Rockford, Ill.).

[5] = tested on: S6K; assay: Western blot of xenograft tumour extracts, S6K phosphorylation; type: in vivo, SCID mice; conditions: tumour-bearing mice dosed with Cpd 1, compared to control
Method: FIG. 11. Cpd 1 markers of autophagy observed in in vitro studies are also present in vivo. […] T-S6K served as loading control.
A downstream target of mTOR is the ribosomal protein S6K kinase thought to have a role in tumour invasiveness, motility and angiogenesis as well as other degenerative diseases such as diabetes (Dann et al., 2007). […] Tumour tissue was homogenised in lysis buffer containing 1% Nonidet P-40, 0.1% SDS, 0.5% deoxycholate, 150 mM NaCl, 50 mM Tris-HCl pH7.5, 1 mM EDTA, 1 mM PMSF and protease inhibitors (Roche) on ice for 30 minutes. After centrifugation at 15,000×g for 15 minutes, soluble extract was were aliquoted into a separate tube, protein content assayed by the BCA method (Pierce), and 50 μg protein loaded on SDS-PAGE gels. Proteins were electrophoretically transferred to PVDF membranes (Millipore Immobilon P) and the membranes were probed with antibodies specific to p-S6K and t-S6K (LifeSpan Bioscience). The blots were developed on X-ray films using HRP-conjugated secondary antibodies and a chemiluminescent substrate (ECL, Amersham, N.Y.).

For COc1ccc([C@H]2c3ccc(O)c(C)c3OC[C@H]2c2ccc(O)cc2)cc1 (stereo in doubt) [Cpd 1, 3-(4-hydroxyphenyl)-4-(4-methoxyphenyl)-8-methylchroman-7-ol], the “endonuclease G in nuclear preparations” value [1] was “upregulated”, the tumor volume [2] was “reductions” and the tumor weight [2] was “reductions”. For the same compound, the mitochondrial membrane depolarization [3] was “results in mitochondrial membrane depolarization”, the “Akt phosphorylation (p-Akt)” value [4] was “reduced up to 120 minutes post exposure” and the “total Akt (t-Akt) expression” value [4] was “remained unchanged”. For the same compound, the “phosphorylation status of S6K (S6K-P) in tumour extracts” value [5] was “reduced compared to control”.
